Laboratory results as given in ChEMBL document CHEMBL1201862, “PubChem BioAssay data set” (2004).
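Method: 48-hour compound exposure of cells in 96-well plates, five concentrations, linear interpolation of endpoints. The concentration for 50% growth inhibition is given as GI50.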 The source made the active and inactive calls. Rule as the data show it: active = GI50 up to about 1.1 µM and inactive = higher.

Tests used:
Experiment in all cases: NCI-60 cell line screen, 48 h
[1] = tested on: K562
[2] = tested on: LOX IMVI
[3] = tested on: CCRF-CEM
[4] = tested on: SF-295
[5] = tested on: SR
[6] = tested on: PC-3
[7] = tested on: MDA-N
[8] = tested on: NCI-H226
[9] = tested on: COLO 205
[10] = tested on: MDA-MB-435
[11] = tested on: SK-MEL-2
[12] = tested on: HCT-15
[13] = tested on: SN12C
[14] = tested on: HCT-116
[15] = tested on: IGROV-1
[16] = tested on: OVCAR-5
[17] = tested on: NCI-H460
[18] = tested on: A498
[19] = tested on: SK-MEL-5
[20] = tested on: BT-549
[21] = tested on: SF-539
[22] = tested on: M14
[23] = tested on: U-251
[24] = tested on: SNB-19
[25] = tested on: MCF7
[26] = tested on: NCI/ADR-RES
[27] = tested on: 786-0
[28] = tested on: SK-MEL-28
[29] = tested on: OVCAR-3
[30] = tested on: EKVX
[31] = tested on: NCI-H522
[32] = tested on: SW-620
[33] = tested on: Hs-578T
[34] = tested on: MOLT-4
[35] = tested on: A549
[36] = tested on: CAKI-1
[37] = tested on: ACHN
[38] = tested on: OVCAR-8
[39] = tested on: HOP-92
[40] = tested on: SNB-75
[41] = tested on: UACC-257
[42] = tested on: SK-OV-3
[43] = tested on: TK-10
[44] = tested on: OVCAR-4
[45] = tested on: DU-145
[46] = tested on: RPMI-8226
[47] = tested on: UACC-62
[48] = tested on: HL-60
[49] = tested on: HCC 2998
[50] = tested on: NCI-H23
[51] = tested on: Malme-3M
[52] = tested on: MDA-MB-231
[53] = tested on: HOP-62
[54] = tested on: UO-31
[55] = tested on: HT-29
[56] = tested on: T47D
[57] = tested on: SF-268
[58] = tested on: KM12

O=[N+]([O-])c1ccc(/N=N\c2c(O)c(S(=O)(=O)O)cc3cc(S(=O)(=O)O)ccc23)cc1
GI50 [1]: > 100 µM (inactive)
GI50 [2]: > 100 µM (inactive)
GI50 [3]: > 100 µM (inactive)
GI50 [4]: > 100 µM (inactive)
GI50 [5]: > 100 µM (inactive)
GI50 [6]: > 100 µM (inactive)
GI50 [7]: > 100 µM (inactive)
GI50 [8]: > 100 µM (inactive)
GI50 [9]: > 100 µM (inactive)
GI50 [10]: > 100 µM (inactive)
GI50 [11]: > 100 µM (inactive)
GI50 [12]: > 100 µM
GI50 [13]: > 100 µM (inactive)
GI50 [14]: > 100 µM (inactive)
GI50 [15]: > 100 µM (inactive)
GI50 [16]: > 100 µM (inactive)
GI50 [17]: > 100 µM (inactive)
GI50 [18]: > 100 µM (inactive)
GI50 [19]: > 100 µM (inactive)
GI50 [20]: > 100 µM (inactive)
GI50 [21]: > 100 µM (inactive)
GI50 [22]: > 100 µM (inactive)
GI50 [23]: > 100 µM (inactive)
GI50 [24]: > 100 µM (inactive)
GI50 [25]: > 100 µM (inactive)
GI50 [26]: > 100 µM (inactive)
GI50 [27]: > 100 µM (inactive)
GI50 [28]: > 100 µM (inactive)
GI50 [29]: 27 µM (inactive)
GI50 [30]: > 100 µM (inactive)
GI50 [31]: > 100 µM (inactive)
GI50 [32]: > 100 µM (inactive)
GI50 [33]: > 100 µM (inactive)
GI50 [34]: > 100 µM (inactive)
GI50 [35]: > 100 µM (inactive)
GI50 [36]: > 100 µM (inactive)
GI50 [37]: > 100 µM (inactive)
GI50 [38]: > 100 µM (inactive)
GI50 [39]: > 100 µM (inactive)
GI50 [40]: > 100 µM (inactive)
GI50 [41]: > 100 µM (inactive)
GI50 [42]: > 100 µM (inactive)
GI50 [43]: > 100 µM (inactive)
GI50 [44]: > 100 µM (inactive)
GI50 [45]: > 100 µM (inactive)
GI50 [46]: > 100 µM (inactive)
GI50 [47]: > 100 µM (inactive)
GI50 [48]: > 100 µM (inactive)
GI50 [49]: > 100 µM (inactive)
GI50 [50]: > 100 µM (inactive)
GI50 [51]: > 100 µM (inactive)
GI50 [52]: > 100 µM (inactive)
GI50 [53]: 88.5 µM (inactive)
GI50 [54]: > 100 µM (inactive)
GI50 [55]: > 100 µM (inactive)
GI50 [56]: > 100 µM (inactive)

COc1cc([C@@H]2c3cc4c(cc3[C@@H](Nc3ccc(Cl)cc3C(=O)c3ccccc3)[C@H]3COC(=O)[C@H]23)OCO4)cc(OC)c1OC
GI50 [1]: 0.358 µM (active)
GI50 [2]: 0.303 µM (active)
GI50 [3]: 0.37 µM (active)
GI50 [4]: 0.299 µM (active)
GI50 [5]: 0.295 µM (active)
GI50 [6]: 0.342 µM (active)
GI50 [7]: 0.307 µM (active)
GI50 [9]: 0.416 µM (active)
GI50 [57]: 0.558 µM (active)
GI50 [10]: 0.242 µM (active)
GI50 [11]: 2.34 µM (inactive)
GI50 [12]: 0.308 µM
GI50 [13]: 0.518 µM (active)
GI50 [14]: 0.291 µM (active)
GI50 [15]: 0.417 µM (active)
GI50 [16]: 0.598 µM (active)
GI50 [17]: 0.277 µM (active)
GI50 [18]: 0.195 µM (active)
GI50 [58]: 0.258 µM (active)
GI50 [19]: 0.298 µM (active)
GI50 [20]: 0.457 µM (active)
GI50 [21]: 0.274 µM (active)
GI50 [22]: 0.414 µM (active)
GI50 [23]: 0.241 µM (active)
GI50 [24]: 0.408 µM (active)
GI50 [25]: 0.395 µM (active)
GI50 [26]: 0.425 µM (active)
GI50 [27]: 0.394 µM (active)
GI50 [28]: 0.372 µM (active)
GI50 [29]: 0.324 µM (active)
GI50 [30]: > 100 µM (inactive)
GI50 [31]: 0.211 µM (active)
GI50 [32]: 0.369 µM (active)
GI50 [33]: 0.287 µM (active)
GI50 [34]: 0.384 µM (active)
GI50 [35]: 0.501 µM (active)
GI50 [36]: 0.601 µM (active)
GI50 [37]: 0.592 µM (active)
GI50 [38]: 0.359 µM (active)
GI50 [41]: 0.998 µM (active)
GI50 [42]: 0.641 µM (active)
GI50 [43]: > 100 µM (inactive)
GI50 [44]: > 100 µM (inactive)
GI50 [45]: 0.428 µM (active)
GI50 [46]: 0.467 µM (active)
GI50 [47]: 0.401 µM (active)
GI50 [48]: 0.297 µM (active)
GI50 [49]: 0.205 µM (active)
GI50 [50]: 0.43 µM (active)
GI50 [51]: 0.396 µM (active)
GI50 [52]: 0.586 µM (active)
GI50 [53]: 0.64 µM (active)
GI50 [54]: 1.19 µM (inactive)
GI50 [55]: 0.307 µM (active)
GI50 [56]: > 100 µM (inactive)

C/C(=N\NC(=S)N1CCCC1)c1nc2cccnc2[nH]1
GI50 [1]: 0.349 µM (active)
GI50 [2]: 0.178 µM (active)
GI50 [3]: 0.0638 µM (active)
GI50 [4]: 0.254 µM (active)
GI50 [5]: 0.202 µM (active)
GI50 [6]: 0.355 µM (active)
GI50 [7]: 0.979 µM (active)
GI50 [8]: 0.277 µM (active)
GI50 [9]: 0.378 µM (active)
GI50 [57]: 0.185 µM (active)
GI50 [10]: 0.416 µM (active)
GI50 [11]: 4.34 µM (inactive)
GI50 [12]: 0.137 µM
GI50 [13]: 0.378 µM (active)
GI50 [14]: 0.163 µM (active)
GI50 [15]: 0.354 µM (active)
GI50 [16]: 0.457 µM (active)
GI50 [17]: 0.0612 µM (active)
GI50 [18]: 0.869 µM (active)
GI50 [58]: 0.321 µM (active)
GI50 [19]: 0.217 µM (active)
GI50 [20]: 0.129 µM (active)
GI50 [21]: 0.0863 µM (active)
GI50 [22]: 0.357 µM (active)
GI50 [23]: 0.0962 µM (active)
GI50 [24]: 0.37 µM (active)
GI50 [25]: 0.33 µM (active)
GI50 [26]: 0.335 µM (active)
GI50 [27]: 0.177 µM (active)
GI50 [28]: 0.349 µM (active)
GI50 [29]: 0.35 µM (active)
GI50 [31]: 11.1 µM (inactive)
GI50 [32]: 1.22 µM (inactive)
GI50 [33]: 13.2 µM (inactive)
GI50 [34]: 0.171 µM (active)
GI50 [35]: 0.223 µM (active)
GI50 [36]: 0.37 µM (active)
GI50 [37]: 0.0897 µM (active)
GI50 [38]: 0.304 µM (active)
GI50 [39]: 0.681 µM (active)
GI50 [40]: 3.85 µM (inactive)
GI50 [41]: 0.289 µM (active)
GI50 [42]: 0.442 µM (active)
GI50 [43]: 0.557 µM (active)
GI50 [44]: 0.302 µM (active)
GI50 [45]: 0.175 µM (active)
GI50 [46]: 0.553 µM (active)
GI50 [47]: 0.259 µM (active)
GI50 [48]: 0.162 µM (active)
GI50 [49]: 19.3 µM (inactive)
GI50 [50]: 0.679 µM (active)
GI50 [51]: 0.583 µM (active)
GI50 [52]: 16.5 µM (inactive)
GI50 [53]: 0.356 µM (active)
GI50 [54]: 0.0634 µM (active)
GI50 [55]: 0.394 µM (active)
GI50 [56]: 0.432 µM (active)

O=C1OC2C=CCC1C2 (centres undefined)
GI50 [1]: > 100 µM (inactive)
GI50 [2]: > 100 µM (inactive)
GI50 [3]: > 100 µM (inactive)
GI50 [4]: > 100 µM (inactive)
GI50 [5]: > 100 µM (inactive)
GI50 [6]: > 100 µM (inactive)
GI50 [7]: > 100 µM (inactive)
GI50 [8]: > 100 µM (inactive)
GI50 [9]: > 100 µM (inactive)
GI50 [57]: > 100 µM (inactive)
GI50 [10]: > 100 µM (inactive)
GI50 [11]: > 100 µM (inactive)
GI50 [12]: > 100 µM
GI50 [13]: > 100 µM (inactive)
GI50 [14]: > 100 µM (inactive)
GI50 [15]: > 100 µM (inactive)
GI50 [16]: > 100 µM (inactive)
GI50 [17]: > 100 µM (inactive)
GI50 [18]: > 100 µM (inactive)
GI50 [58]: > 100 µM (inactive)
GI50 [19]: > 100 µM (inactive)
GI50 [20]: > 100 µM (inactive)
GI50 [21]: > 100 µM (inactive)
GI50 [22]: > 100 µM (inactive)
GI50 [23]: > 100 µM (inactive)
GI50 [24]: > 100 µM (inactive)
GI50 [25]: > 100 µM (inactive)
GI50 [26]: > 100 µM (inactive)
GI50 [27]: > 100 µM (inactive)
GI50 [28]: > 100 µM (inactive)
GI50 [29]: > 100 µM (inactive)
GI50 [30]: > 100 µM (inactive)
GI50 [31]: > 100 µM (inactive)
GI50 [32]: > 100 µM (inactive)
GI50 [33]: > 100 µM (inactive)
GI50 [34]: > 100 µM (inactive)
GI50 [35]: > 100 µM (inactive)
GI50 [36]: > 100 µM (inactive)
GI50 [37]: > 100 µM (inactive)
GI50 [38]: > 100 µM (inactive)
GI50 [40]: > 100 µM (inactive)
GI50 [41]: > 100 µM (inactive)
GI50 [42]: > 100 µM (inactive)
GI50 [43]: > 100 µM (inactive)
GI50 [45]: > 100 µM (inactive)
GI50 [46]: > 100 µM (inactive)
GI50 [47]: > 100 µM (inactive)
GI50 [48]: > 100 µM (inactive)
GI50 [49]: > 100 µM (inactive)
GI50 [50]: > 100 µM (inactive)
GI50 [51]: > 100 µM (inactive)
GI50 [52]: > 100 µM (inactive)
GI50 [53]: > 100 µM (inactive)
GI50 [54]: > 100 µM (inactive)
GI50 [55]: > 100 µM (inactive)
GI50 [56]: > 100 µM (inactive)
